Results on seven compounds are retold here after US9725460B2, “Oridonin analogs, compositions, and methods related thereto” (THE BOARD OF REGENTS OF THE UNIVERSITY OF TEXAS SYSTEM, priority 2013, dated 2017).

Where two headings read alike, the source gives them in different places.

The subject of one series is MCF-7. As to the kind of experiment: MTT cancer cell proliferation assay, MCF-7. Conditions: Homo sapiens. It counts as cell-based, human. Put shortly:
(§1)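 Cells seeded at 1×10^4/well and exposed 48 h to 0.01-100 μM compound (0.01, 0.1, 1, 5, 10, 100 μM) or DMSO. MTT added for a further 4 h, formazan dissolved in DMSO and OD read at 550 nm; quadruplicate wells per concentration. MCF-7 is ER-positive; MDA-MB-231 ER-negative, triple-negative.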

The test system of the next series is DU145. As to the kind of experiment: Cancer cell proliferation assay, DU145. It counts as cell-based. Conditions: Homo sapiens, DU-145.
The nature of a further series: Aqueous solubility. It counts as physicochemical.
Another series has as its system Panc-1. As to the kind of experiment: Cancer cell proliferation assay, Panc-1. It counts as cell-based. The conditions noted are these: Homo sapiens, PANC-1. The method, then:
(§2) In Vitro Determination of Effects of Synthesized Diterpenoids on Cancer Cell Proliferation. […] Then MTT solution was removed, and 150 μL of DMSO was added to each well. Absorbance of all wells was determined by measuring OD at 550 nm after a 10 min incubation on a 96-well GlowMaxate absorbance reader (Promega, Madison, Wis.). Each individual compound was tested in quadruplicate wells for each concentration.

For the next series, the system named is AsPC1. Put plainly: Cancer cell proliferation assay, AsPC1. Type of series: cell-based. Conditions: Homo sapiens, ASPC1. The method, then: as §2
The subject of series [1] is breast, pancreatic, and prostate cancer cell lines. As to the kind of experiment: Anti-proliferation effects against cancer cell lines. The conditions noted are these: summary of Tables 1 and 2. It counts as cell-based, human. As to the method: In Vitro Determination of Effects of Synthesized Diterpenoids on Cancer Cell Proliferation. Breast cancer cell lines MCF-7, MDA-MB-231, […] and MCF/ADR were seeded in 96-well plates at a density of 1×10^4 cells/well and treated with DMSO and 0.01, 0.1, 1, 5, 10, and 100 μM of individual compound for 48 h, and then 20 μL of 3-(4,5-dimethylthiazol-2-yl)-2,5-diphenyltetrazolium bromide (MTT) (5 mg/mL in PBS) was added to each well and further incubated for another 4 h. Then MTT solution was removed, and 150 μL of DMSO was added to each well. Absorbance of all wells was determined by measuring OD at 550 nm after a 10 min incubation on a 96-well GlowMaxate absorbance reader (Promega, Madison, Wis.). Each individual compound was tested in quadruplicate wells for each concentration.

The test system of a further series is MDA-MB-231. As to the kind of experiment: MTT cancer cell proliferation assay, MDA-MB-231. The conditions noted are these: Homo sapiens. Type of series: cell-based, human. A digest of the protocol: as §1
A further series deals with MCF-7/ADR. Put plainly: MTT growth inhibition, drug-resistant MCF-7/ADR. Type of series: cell-based. Conditions: Homo sapiens, NCI/ADR-RES, 24 h, Table 1d; drug-resistant breast cancer cells; mean ± SE of three experiments.
The nature of series [2]: Body weight and tolerability in xenograft mice. The conditions noted are these: 5.0 mg/kg ip. The source says:
(§3) FIG. 14. […] Values are mean±SE of three independent experiments.
(§4) In pilot in vivo studies, this compound was further evaluated for its anticancer activity in suppression of tumor growth in the triple-negative breast cancer MDA-MB-231 xenograft model.

Series [3] deals with xenograft tumors (breast cancer MDA-MB-231). As to the kind of experiment: MDA-MB-231 xenograft tumor growth in mice. It counts as in vivo. The conditions noted are these: 5.0 mg/kg ip; triple-negative MDA-MB-231 xenograft; p<0.0001.
Excerpt: as §3, §4

The mark [4] stands for this setting: MCF7, Table 1a, breast cancer, read-out: IC50 (μM) MCF-7.
Setting [5] is: MCF7, Table 2b, mean of at least three experiments, read-out: Effect on proliferation MCF-7 (ER positive) (IC50).
The mark [6] stands for this setting: Table 1a, prostate cancer, read-out: IC50 (μM) DU145.
The mark [7] stands for this setting: Table 2b, mean of at least three experiments, read-out: Effect on proliferation DU145 (IC50).
[8] abbreviates: Table 1a, pancreatic cancer, read-out: IC50 (μM) Panc-1.
[9] abbreviates: Table 2b, mean of at least three experiments, read-out: Effect on proliferation Panc-1 (IC50).
Setting [10] is: Table 1a, pancreatic cancer, read-out: IC50 (μM) AsPC1.
Setting [11] is: Table 2b, mean of at least three experiments, read-out: Effect on proliferation AsPC1 (IC50).
Where [12] appears, read: MDA-MB-231, Table 1a, breast cancer, read-out: IC50 (μM) MDA-MB-231.
Setting [13] is: MDA-MB-231, Table 2b, mean of at least three experiments, read-out: Effect on proliferation MDA-MB-231 (ER negative) (IC50).
Setting [14] is: MCF7, Table 1c, dienone analogues, mean ± SE of three experiments, read-out: Antiproliferative effect MCF-7 (IC50).
[15] abbreviates: MCF7, Table 2a, A-ring modified analogues, read-out: IC50 (μM) MCF-7.
Where [16] appears, read: Table 2a, A-ring modified analogues, read-out: IC50 (μM) Panc-1.
[17] abbreviates: Table 2a, A-ring modified analogues, read-out: IC50 (μM) AsPC1.
Setting [18] is: MDA-MB-231, Table 1c, dienone analogues, mean ± SE of three experiments, read-out: Antiproliferative effect MDA-MB-231 (IC50).
The mark [19] stands for this setting: MDA-MB-231, Table 2a, A-ring modified analogues, read-out: IC50 (μM) MDA-MB-231.

Take `C=C1C(=O)[C@]23[C@H](O)[C@H]1CC[C@H]2[C@@]12CO[C@]3(O)[C@@H](O)[C@@H]1C(C)(C)Cc1sc(NC)nc12` [CYD-5-54, (5aR,6S,7S,7aR,10S,12aS,12bR,15R)-6,7,15-trihydroxy-5,5-dimethyl-2-(methylamino)-9-methylene-5,5a,6,7,10,11,12,12a-octahydro-4H-7,12b-(epoxymethano)-7a,10-methanocyclohepta[7,8]naphtho[1,2-d]thiazol-8(9H)-one]: the IC50 was determined as 1.28 µM in the series with MCF-7 (setting [4]); 1.3 µM in the series with MCF-7 (setting [5]); 4.05 µM in the series on DU145 (setting [6]); 4.1 µM in the series with DU145 (setting [7]); 2.33 µM with Panc-1 (setting [8]); 2.3 µM in the series on Panc-1 (setting [9]). The IC50 was found to be 1.84 µM with AsPC1 (setting [10]), 1.8 µM with AsPC1 (setting [11]), 2.06 µM with MDA-MB-231 (setting [12]) and 2.1 µM in the series on MDA-MB-231 (setting [13]). In “Aqueous solubility” (FIG. 2), the “Aqueous solubility compared with oridonin” value is reported as “significantly improved solubility”. The “Improvement of aqueous solubility in comparison with oridonin” value in “Aqueous solubility” (HCl salt vs oridonin (1.29 mg/mL)) is reported as around 62 fold. Moreover, in the series “Aqueous solubility” (water, in the form of HCl salt, read-out: Aqueous solubility (saturated concentration)), the solubility was 81.2 mg/mL. Also, in series [1], the “IC50 values, anti-proliferation effects against cancer cell lines” value (from here on “IC50 values, anti-proliferation effects”) was “low micromolar to nanomolar”.

On to `C=C1C(=O)[C@@]23[C@@H]4OC(C)(C)OC25OC[C@]2(C(=O)C(C=O)=CC(C)(C)[C@H]2[C@@H]5O)[C@@H]3CC[C@@H]14` [CYD-6-92, (3S,3aR,3a^1R,6aR,7S,7aR,11aS,11bS)-7-hydroxy-5,5,8,8-tetramethyl-15-methylene-11,14-dioxo-2,3,3a,7,7a,8,11,11b-octahydro-1H-6a,11a-(epoxymethano)-3,3a^1-ethanophenanthro[1,10-de][1,3]dioxine-10-carbaldehyde], for which the IC50 worked out at 1.28 ± 0.47 µM in the series with MCF-7 (setting [14]); 1.46 µM with MCF-7 (setting [15]); 6.55 ± 0.96 µM with MCF-7/ADR; 5.35 µM in the series on Panc-1 (setting [16]); 3.57 µM with AsPC1 (setting [17]); 3.46 ± 1.33 µM in the series with MDA-MB-231 (setting [18]). In the series with MDA-MB-231 (setting [19]), the IC50 was 6.09 µM. The “IC50 values, anti-proliferation effects” value in series [1] is given as “low micromolar to nanomolar”.

On to `C=CCNc1nc2c(s1)CC(C)(C)[C@H]1[C@H](O)[C@@]3(O)OC[C@@]21[C@@H]1CC[C@H]2C(=C)C(=O)[C@]13[C@@H]2O` [CYD-6-18, (5aR,6S,7S,7aR,10S,12aS,12bR,15R)-2-(allylamino)-6,7,15-trihydroxy-5,5-dimethyl-9-methylene-5,5a,6,7,10,11,12,12a-octahydro-4H-7,12b-(epoxymethano)-7a,10-methanocyclohepta[7,8]naphtho[1,2-d]thiazol-8(9H)-one], for which the IC50 with MCF-7 (setting [4]) amounted to 0.18 µM; with MCF-7 (setting [5]), 0.2 µM; in the series with DU145 (setting [6]), 1.18 µM; with DU145 (setting [7]) it was 1.2 µM; with Panc-1 (setting [8]), 1.1 µM; with Panc-1 (setting [9]), 1.1 µM. In addition, the IC50 worked out at 1.05 µM in the series on AsPC1 (setting [10]), 1.1 µM in the series on AsPC1 (setting [11]), 0.18 µM in the series on MDA-MB-231 (setting [12]) and 0.2 µM in the series with MDA-MB-231 (setting [13]). In addition, the “Loss of body weight” value in [2] was “no significant loss of body weight”. Also, in [2], the “Tolerability during the experiments” value is recorded as “tolerated”. The “Inhibition of xenograft tumor growth compared to oridonin at the same dose” value in series [3] is given as “much better effect in inhibiting tumor growth”. The “IC50 values, anti-proliferation effects” value in series [1] was “low micromolar to nanomolar”.

Turning to `C=C1C(=O)[C@]23[C@H](O)[C@H]1CC[C@H]2[C@@]12CO[C@]3(O)[C@@H](O)[C@@H]1C(C)(C)C=CC2=O` [CYD-6-58, (4aR,5S,6S,6aR,9S,11aS,11bS,14R)-5,6,14-trihydroxy-4,4-dimethyl-8-methylene-4,4a,5,6,9,10,11,11a-octahydro-1H-6,11b-(epoxymethano)-6a,9-methanocyclohepta[a]naphthalene-1,7(8H)-dione], the IC50 is 1.31 ± 0.25 µM in the series with MCF-7 (setting [14]); 0.95 µM with MCF-7 (setting [15]); 5.82 ± 2.12 µM in the series on MCF-7/ADR; above 10 µM with Panc-1 (setting [16]); 2.99 µM with AsPC1 (setting [17]); 2.23 ± 0.68 µM with MDA-MB-231 (setting [18]). Besides, in the series with MDA-MB-231 (setting [19]), the IC50 was 3.56 µM.

Consider `C=C1C(=O)[C@@]23[C@@H]4OC(C)(C)OC25OC[C@]2(C(=O)C=CC(C)(C)[C@H]2[C@@H]5O)[C@@H]3CC[C@@H]14` [CYD-6-25, (3S,3aR,3a^1R,6aR,7S,7aR,11aS,11bS)-7-hydroxy-5,5,8,8-tetramethyl-15-methylene-3,3a,7,7a,8,11b-hexahydro-1H-6a,11a-(epoxymethano)-3,3a^1-ethanophenanthro[1,10-de][1,3]dioxine-11,14(2H)-dione], for which the IC50 with MCF-7 (setting [14]) worked out at 0.56 ± 0.31 µM; with MCF-7 (setting [15]) it was 1.1 µM; in the series with MCF-7/ADR it was 5.03 ± 1.91 µM; in the series on Panc-1 (setting [16]), 7.93 µM; with AsPC1 (setting [17]), 8.82 µM; in the series on MDA-MB-231 (setting [18]), 3.49 ± 1.21 µM. In the series on MDA-MB-231 (setting [19]), the IC50 amounted to 5.6 µM.

Take `C=C1C(=O)[C@]23[C@H](O)[C@H]1CC[C@H]2[C@@]12CO[C@]3(O)[C@@H](O)[C@@H]1C(C)(C)Cc1sc(NCCCC)nc12` [CYD-6-28, (5aR,6S ,7S,7aR,10S,12aS,12bR,15R)-2-(butylamino)-6,7,15-trihydroxy-5,5-dimethyl-9-methylene-5,5a,6,7,10,11,12,12a-octahydro-4H-7,12b-(epoxymethano)-7a,10-methanocyclohepta[7,8]naphtho[1,2-d]thiazol-8(9H)-one]: the IC50 in the series on MCF-7 (setting [4]) was 0.59 µM; with MCF-7 (setting [5]), 0.6 µM; in the series with DU145 (setting [6]), 4.22 µM; in the series on DU145 (setting [7]), 4.2 µM; in the series on Panc-1 (setting [8]) it was 4.01 µM; with Panc-1 (setting [9]), 4 µM. The IC50 turned out to be 1.39 µM in the series with AsPC1 (setting [10]), 1.4 µM in the series with AsPC1 (setting [11]), 1.06 µM in the series on MDA-MB-231 (setting [12]) and 1.1 µM in the series with MDA-MB-231 (setting [13]). Also, the “IC50 values, anti-proliferation effects” value in series [1] is “low micromolar to nanomolar”.

As for `C=C1C(=O)[C@@]23C(CC[C@H]1[C@H]2O)[C@@]12CO[C@]3(O)[C@@H](O)C1C(C)(C)Cc1sc(NC3CCCCC3)nc12` (stereo partly drawn) [CYD-6-17-2, (6S,7S,7aR,10R,12bR,15R)-2-(cyclohexylamino)-6,7,15-trihydroxy-5,5-dimethyl-9-methylene-5,5a,6,7,10,11,12,12a-octahydro-4H-7,12b-(epoxymethano)-7a,10-methanocyclohepta[7,8]naphtho[1,2-d]thiazol-8(9H)-one], the IC50 was 0.94 µM in the series with MCF-7 (setting [4]); 0.9 µM in the series on MCF-7 (setting [5]); 1.82 µM in the series on DU145 (setting [6]); 1.8 µM in the series on DU145 (setting [7]); 3.74 µM in the series with Panc-1 (setting [8]); 3.7 µM in the series on Panc-1 (setting [9]). For the same compound, the IC50 in the series on AsPC1 (setting [10]) worked out at 1.65 µM; in the series with AsPC1 (setting [11]) it was 1.7 µM; with MDA-MB-231 (setting [12]), 0.83 µM; in the series on MDA-MB-231 (setting [13]), 0.8 µM. The “IC50 values, anti-proliferation effects” value in series [1] was “low micromolar to nanomolar”.
